Assays:
Format in all cases: cell-based
[1] = system: Candida albicans (C. albicans, ATCC #10231); test: MIC / synergy evaluation in 96 well microtiter plate, yeast in Yeast Malt Extract Broth; settings: visual turbidity; for MIC: Candida albicans, ATCC10231, single active acting alone, read-out: Minimum Inhibitory Concentration
From the text: (§1) One measure of synergism is the industrially accepted method described by Kull, F. C.; Eisman, P. C.; Sylwestrowicz, H. D. and Mayer, R. L., in Applied Microbiology 9:538-541 (1961), using the ratio determined by the formula: Qa/QA+Qb/QB=Synergy Index (“SI”) wherein:
(§2) QA=concentration of compound A (first component) in ppm, acting alone, which produced an end point (MIC of Compound A).
(§3) Qa=concentration of compound A in ppm, in the mixture, which produced an end point.
(§4) QB=concentration of compound B (second component) in ppm, acting alone, which produced an end point (MIC of Compound B).
(§5) Qb=concentration of compound B in ppm, in the mixture, which produced an end point.
(§6) When the sum of Qa/QA and Qb/QB is greater than one, antagonism is indicated. […] The lower the SI, the greater the synergy shown by that particular mixture. The minimum inhibitory concentration (MIC) of a microbicide is the lowest concentration tested under a specific set of conditions that prevents the growth of added microorganisms. The microorganisms tested were Escherichia coli(E. coli, ATCC #8739), a yeast, Candida albicans (C. albicans, ATCC #10231) and mold, Aspergillus niger (A. niger, ATCC #16404).
(§7) MBIT synergy with a secondary biocide was determined by evaluating the minimum biocide or biocide blend concentration required to inhibit microbial growth. All studies were conducted using a 96 well microtiter plate format. For all studies, 200 μl of microbial growth media, containing various concentrations of MBIT alone, the secondary biocide alone, or combinations of both biocide chemistries, was added to individual wells of a microtiter plate. Specifically, Tryptic Soy Broth (TSB) was utilized for bacteria (E. coli, ATCC #8739), Yeast Malt Extract Broth (YMB) for yeast (Candida albicans, ATCC #10231) and Potato Dextrose Broth (PDB) for mold (Aspergillus niger, ATCC #16404). Test organisms, at a final concentration of 10^4 CFU/mL or 10^4 spores/mL, were applied to each well in parallel experiments to initiate the MIC evaluations. Growth medium containing no biocide was utilized as a control in each experimental setup to confirm the growth viability of each organism. Eight concentrations (2-fold dilutions) of each individual biocide were evaluated in the microbial growth inhibition studies in addition to the 64 possible combinations of these biocide concentrations. Evaluation of the individual biocide concentrations is required to achieve an inhibitory concentration end point for synergy index calculation. […] Individual wells were scored as growth or no growth based on visual organism growth turbidity.
(§8) These microorganisms are representative of natural contaminants in many consumer and industrial applications. […] (yeast and mold) or 30° C. (bacteria).

[2] = system: Escherichia coli (E. coli, ATCC #8739); test: MIC / synergy evaluation in 96 well microtiter plate, bacteria in Tryptic Soy Broth; settings: visual turbidity; for MIC: Escherichia coli, ATCC8739, single active acting alone, read-out: Minimum Inhibitory Concentration
From the text: as §1, §2, §3, §4, §5, §6, §7, §8

[3] = system: Aspergillus niger (A. niger, ATCC #16404); test: MIC / synergy evaluation in 96 well microtiter plate, mold in Potato Dextrose Broth; settings: ATCC16404, single active acting alone, visual turbidity, read-out: Minimum Inhibitory Concentration
From the text: as §1, §2, §3, §4, §5
When the sum of Qa/QA and Qb/QB is greater than one, antagonism is indicated. […] The lower the SI, the greater the synergy shown by that particular mixture. […]
MBIT synergy with a secondary biocide was determined by evaluating the minimum biocide or biocide blend concentration required to inhibit microbial growth. […] Eight concentrations (2-fold dilutions) of each individual biocide were evaluated in the microbial growth inhibition studies in addition to the 64 possible combinations of these biocide concentrations. […] Individual wells were scored as growth or no growth based on visual organism growth turbidity. […]

MIC [1] [mg/L]	MIC [2] [mg/L]	MIC [3] [mg/L]	SMILES	Minimum Inhibitory Concentration ([1]; single active acting alone) [ppm]	Minimum Inhibitory Concentration ([2]; single active acting alone) [ppm]
188	2500		O=C(O)CCCCCCCC(=O)O [Azelaic acid, azelaic acid]		
750	5000	40000	CC(O)C(=O)O (stereo not shown) [Lactic acid, lactic acid]		
			Cn1sc2ccccc2c1=O [MBIT, N-methyl-1,2-benzisothiazolin-3-one]	1.50	12.50
7.82	10000	38	C=CCCCCCCCCC(=O)O [Undecylenic acid, undecylenic acid]		

— patent US9642367B2, “Microbicidal composition” (Dow Global Technologies LLC, priority 2013, dated 2017)
